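Method: 48-hour compound exposure of cells in 96-well plates, five concentrations, linear interpolation of endpoints. GI50: concentration for 50% inhibition of growth. The concentration for full growth arrest is given as TGI.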
Assays:
Assay in all cases: inhibition of tumour cell growth, NCI panel, 48 h
A498 renal = system: A498 renal
ACHN renal = system: ACHN renal
LOX IMVI melanoma = system: LOX IMVI melanoma
MDA-MB-231 breast = system: MDA-MB-231 breast
NCI-H460 lung = system: NCI-H460 lung
PC-3 prostate = system: PC-3 prostate
SF-295 CNS = system: SF-295 CNS
SK-MEL-5 melanoma = system: SK-MEL-5 melanoma
SNB-75 CNS = system: SNB-75 CNS
UACC-62 melanoma = system: UACC-62 melanoma

Row | SMILES | GI50 (A498 renal) | TGI (A498 renal) | GI50 (ACHN renal) | TGI (ACHN renal) | GI50 (LOX IMVI melanoma) | TGI (LOX IMVI melanoma) | GI50 (MDA-MB-231 breast) | TGI (MDA-MB-231 breast) | GI50 (NCI-H460 lung) | TGI (NCI-H460 lung) | GI50 (PC-3 prostate) | TGI (PC-3 prostate) | GI50 (SF-295 CNS) | TGI (SF-295 CNS) | GI50 (SK-MEL-5 melanoma) | TGI (SK-MEL-5 melanoma) | GI50 (SNB-75 CNS) | TGI (SNB-75 CNS) | GI50 (UACC-62 melanoma) | TGI (UACC-62 melanoma)
1 | O=C1c2cccnc2C(=O)c2c1c(C(=O)OCCN1CCOCC1)c1ccccn21 | 23.6 nM | 1.65 µM | < 0.01 µM | 11.5 µM | < 0.01 µM | 0.384 µM | 0.905 µM | 41.2 µM | < 0.01 µM | 1.06 µM | 0.0816 µM | 17.1 µM | 19.7 nM | 1.05 µM | 18.9 nM | 0.135 µM | < 0.01 µM | 0.572 µM | < 0.01 µM | 0.11 µM
2 | CCc1ccc(Nc2cc(C)nc3nc(C)nn23)cc1 | 533 nM | 78.7 µM | 34.8 µM | > 100 µM | 46 µM | > 100 µM | 31.4 µM | > 100 µM | 71.1 µM | > 100 µM | 53.3 µM | > 100 µM | 78200 nM | > 100 µM | 32900 nM | > 100 µM | 35.6 µM | > 100 µM | 37.7 µM | > 100 µM
3 | CC(=O)c1ccc(NCN2C(=O)c3ccccc3C2=O)cc1 | – | > 100 µM | – | > 100 µM | – | > 100 µM | – | > 100 µM | – | > 100 µM | – | > 100 µM | – | > 100 µM | – | > 100 µM | – | > 100 µM | – | > 100 µM
4 | COc1ccc(/C=C/C(=O)c2ccc(Nc3ccnc4cc(Cl)ccc34)cc2)cc1 | > 52300 nM | > 100 µM | > 100 µM | > 100 µM | > 100 µM | > 100 µM | 31.1 µM | > 100 µM | > 100 µM | > 100 µM | > 100 µM | > 100 µM | > 100000 nM | > 100 µM | 21600 nM | > 100 µM | > 100 µM | > 100 µM | 62.6 µM | > 100 µM
5 | C[C@@]1(N2C(=O)OC[C@@H]2c2ccccc2)C(=O)N([C@H](CC(=O)N2CCC(N3CCCCC3)CC2)C(=O)NCc2cccc(C(F)(F)F)c2)[C@@H]1/C=C/c1ccccc1 | 1880 nM | 5.98 µM | 2.03 µM | 4.61 µM | 1.81 µM | 3.5 µM | 2.07 µM | 4.03 µM | 2 µM | 3.86 µM | 4.15 µM | 15.7 µM | 1730 nM | 3.42 µM | 1810 nM | 3.21 µM | 1.28 µM | 2.95 µM | 1.85 µM | 3.78 µM
6 | COC(=O)c1ccc(C2SCC(=O)N2NC(=O)C(O)c2ccccc2)cc1 (centres undefined) | > 100000 nM | > 100 µM | > 100 µM | > 100 µM | > 100 µM | > 100 µM | > 100 µM | > 100 µM | > 100 µM | > 100 µM | > 100 µM | > 100 µM | > 100000 nM | > 100 µM | > 100000 nM | > 100 µM | > 100 µM | > 100 µM | > 100 µM | > 100 µM
7 | COc1cc(C2C(C#N)=C(N)Oc3cc(O)ccc32)cc(OC)c1OC (centres undefined) | 218 nM | 1.45 µM | 0.882 µM | > 100 µM | 0.546 µM | > 100 µM | 1.85 µM | > 100 µM | 0.382 µM | > 75.2 µM | 0.619 µM | > 100 µM | 374 nM | > 100 µM | 370 nM | 26.7 µM | 0.271 µM | > 100 µM | 0.407 µM | > 100 µM
8 | C/C(=N\NC(=O)c1ccncc1)c1ccc(O)cc1O | 8610 nM | > 100 µM | 4.48 µM | > 100 µM | 3.46 µM | > 100 µM | 3.88 µM | > 100 µM | 5 µM | > 100 µM | 10.9 µM | > 100 µM | 2390 nM | 6.69 µM | 3470 nM | 29.6 µM | 14.1 µM | 88.2 µM | 3.3 µM | > 100 µM
9 | COc1ccc(Nc2ncccc2C(=O)NCc2cn(Cc3cccc(Oc4ccccc4)c3)nn2)cc1 | 2350 nM | 8.71 µM | 4.79 µM | > 100 µM | 3.6 µM | > 100 µM | 3.09 µM | 8.62 µM | 3.52 µM | > 100 µM | 3.86 µM | > 100 µM | 2940 nM | > 100 µM | 2900 nM | > 100 µM | 3.09 µM | > 100 µM | 3.13 µM | > 100 µM
10 | O=c1cccc(C#CC#C/C=C/CO)o1 | 7570 nM | 22.7 µM | 2.13 µM | 4.86 µM | 1.55 µM | 3.32 µM | 1.87 µM | 4.03 µM | 2.88 µM | – | 2.94 µM | 11.3 µM | 5840 nM | 18.8 µM | 2480 nM | 6.24 µM | 17 µM | 92.9 µM | 1.68 µM | 3.39 µM
11 | Nc1nc2c(c3cnccc13)C(c1cccc(Cl)c1)Cc1cnccc1-2 (centres undefined) | 275 nM | 0.852 µM | 0.761 µM | 11.9 µM | 0.373 µM | 11.2 µM | 0.763 µM | 11 µM | 0.385 µM | 11.6 µM | 0.439 µM | 1.66 µM | 273 nM | 0.914 µM | 398 nM | 2.04 µM | 0.38 µM | 17.8 µM | 0.371 µM | 12 µM
12 | Cc1nc2cc(N)c(Cl)cc2[nH]1 | – | > 100 µM | – | > 100 µM | – | > 100 µM | – | > 100 µM | – | > 100 µM | – | > 100 µM | – | > 100 µM | – | > 100 µM | – | > 100 µM | – | > 100 µM
13 | CC[C@]12CCCN3CC[C@]4(C(=C(C(=O)OC)C1)Nc1ccccc14)[C@@H]32 | 16100 nM | 32.4 µM | 15.3 µM | 28.6 µM | 14.3 µM | 27.5 µM | 15.5 µM | 38.1 µM | 18.1 µM | 38.3 µM | 20.5 µM | 61.5 µM | 17900 nM | 36.1 µM | 15400 nM | 28.8 µM | 13.6 µM | 61.9 µM | 11.4 µM | 31 µM
